Values quoted from earlier work, collected in patent publication US10603401B2, “Dressing system” (Edixomed Limited, priority 2015, dated 2020).

Conditions: healthy 70 kg-adult

Compound	Generally accepted safe dosage for topical anaesthesia
COC(=O)[C@H]1[C@@H](OC(=O)c2ccccc2)C[C@@H]2CC[C@H]1N2C [cocaine]	200 mg
CCCCNc1ccc(C(=O)OCCN(C)C)cc1 [tetracaine]	50 mg
CCN(CC)CC(=O)Nc1c(C)cccc1C [lidocaine]	750 mg
